Experimental findings from ChEMBL document CHEMBL1143883, “Fluoroolefins as amide bond mimics in dipeptidyl peptidase IV inhibitors” (Bioorg Med Chem Lett, 2008) are described below.

The nature of data set [1]: Oral bioavailability in rat at 2 mg/kg. It counts as ADME, organism-based. As to conditions: in vivo.
Data set [2] concerns the target Voltage-gated inwardly rectifying potassium channel KCNH2 (Homo sapiens, UniProt Q12809).
Data set [3] in a line: Half life in rat at 1 mg/kg, iv or 2 mg/kg, po. It counts as ADME, organism-based. As to conditions: in vivo.
The nature of data set [4]: Plasma clearance in rat at 1 mg/kg, iv or 2 mg/kg, po. The data set is classed as ADME, organism-based.
Data set [5] is described as follows: Mean residence time in rat at 1 mg/kg, iv or 2 mg/kg, po. It counts as ADME, organism-based. As to conditions: in vivo.
A short description of data set [6]: Metabolic stability in rat hepatocytes after 60 mins. As to conditions: read-out: Stability. The data set is classed as ADME, cell-based, Hepatocyte.
Data set [7] relates to Liver microsomes. Briefly: Metabolic stability in human liver microsome assessed as covalent binding per mg of protein. The data set is classed as ADME.
Data set [8] deals with Liver microsomes. The experiment in a line: Metabolic stability in rat liver microsome assessed as covalent binding per mg of protein. It counts as ADME.
Data set [9] can be described thus: Metabolic stability in rat liver microsomes after 60 mins in presence of NADPH. The data set is classed as ADME, Microsome. The settings on record: read-out: Stability.

Chain of Voltage-gated inwardly rectifying potassium channel KCNH2 (Q12809 whole entry): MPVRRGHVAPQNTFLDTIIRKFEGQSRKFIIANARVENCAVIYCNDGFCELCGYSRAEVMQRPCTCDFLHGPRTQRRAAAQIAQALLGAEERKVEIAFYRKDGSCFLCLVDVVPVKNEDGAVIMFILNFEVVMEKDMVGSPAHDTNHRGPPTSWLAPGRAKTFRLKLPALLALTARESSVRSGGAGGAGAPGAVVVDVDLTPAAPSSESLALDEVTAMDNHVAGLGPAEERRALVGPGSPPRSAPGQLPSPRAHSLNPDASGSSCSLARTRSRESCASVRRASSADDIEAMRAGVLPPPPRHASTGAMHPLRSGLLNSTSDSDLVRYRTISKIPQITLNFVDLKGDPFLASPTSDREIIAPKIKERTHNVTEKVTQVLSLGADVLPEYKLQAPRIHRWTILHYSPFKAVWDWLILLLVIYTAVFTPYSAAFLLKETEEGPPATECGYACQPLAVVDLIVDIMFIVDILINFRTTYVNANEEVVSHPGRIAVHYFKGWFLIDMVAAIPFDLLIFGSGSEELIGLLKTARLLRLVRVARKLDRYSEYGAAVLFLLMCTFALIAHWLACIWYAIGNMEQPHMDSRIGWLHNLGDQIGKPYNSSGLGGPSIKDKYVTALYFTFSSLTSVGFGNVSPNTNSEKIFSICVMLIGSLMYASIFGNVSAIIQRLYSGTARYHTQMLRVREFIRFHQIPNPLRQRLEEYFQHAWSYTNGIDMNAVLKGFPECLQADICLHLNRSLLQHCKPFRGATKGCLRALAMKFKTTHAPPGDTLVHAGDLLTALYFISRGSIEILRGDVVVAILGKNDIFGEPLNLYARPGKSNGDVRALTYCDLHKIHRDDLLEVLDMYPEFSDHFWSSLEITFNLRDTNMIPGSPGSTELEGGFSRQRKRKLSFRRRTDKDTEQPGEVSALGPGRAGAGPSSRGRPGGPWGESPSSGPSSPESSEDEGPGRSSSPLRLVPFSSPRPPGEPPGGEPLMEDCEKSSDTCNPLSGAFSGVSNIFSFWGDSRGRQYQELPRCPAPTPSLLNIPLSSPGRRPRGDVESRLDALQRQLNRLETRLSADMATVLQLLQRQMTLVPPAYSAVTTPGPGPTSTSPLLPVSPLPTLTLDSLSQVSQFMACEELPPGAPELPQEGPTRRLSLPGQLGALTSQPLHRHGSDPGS

Turning to `CS(=O)(=O)c1ccc(-c2noc([C@@H](CCO)[C@H](N)C(F)=C3CCCC3)n2)c(Cl)c1.O=C(O)C(F)(F)F`, in data set [1], the bioavailability was 4%. Moreover, the IC50 in data set [2] came to 47 µM. In data set [3], this compound had a half-life of 1.6 h. The compound also came in with a clearance in data set [4] of 51 mL/min/kg.

`CC(c1nc(-c2ccc(S(C)(=O)=O)cc2Cl)no1)[C@H](N)C(F)=C1CCCC1.O=C(O)C(F)(F)F` (stereo partly drawn) showed an MRT in [5] of 2 h. In data set [1], the bioavailability is 62%. The remaining at 1 h in data set [6] was determined as 3%. In addition, in data set [4], the clearance came out at 20 mL/min/kg.

Turning to `CS(=O)(=O)c1ccc(-c2noc([C@@H](CC3CC3)[C@H](N)C(F)=C3CCCC3)n2)c(Cl)c1.O=C(O)C(F)(F)F`, the bioavailability in [1] amounted to 1%. For the same compound, the half-life in [3] was 1.5 h. This compound registered a clearance in [4] of 54 mL/min/kg.

Take `C[C@H](c1nc(-c2ccc(S(=O)(=O)C[14CH3])cc2Cl)no1)[C@H](N)C(F)=C1CCCC1.O=C(O)C(F)(F)F`: the results for the Stability with Liver microsomes [7] and with Liver microsomes [8] were 287 pmol/mg and 662 pmol/mg, respectively.

For the compound `C[C@H](c1nc(-c2ccc(S(C)(=O)=O)cc2Cl)no1)[C@H](N)C(=O)N1CCCC1.O=C(O)C(F)(F)F`, the bioavailability in [1] was 27%. Moreover, the remaining at 1 h was 56% in data set [9] and 88% in data set [6]. This compound gave a half-life in data set [3] of 0.86 h. In addition, the clearance in [4] turned out to be 6 mL/min/kg.
